Test results taken from US20190375708A1 (VenatoRx Pharmaceuticals, Inc., priority 2018, published 2019).

Legend:
[1] = In vitro cytotoxicity assay (MTT cell viability) in HepG2 cells; type: cell-based, human; details: human
Outline: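 Viability measured by MTT conversion, absorbance at 492 nm, as percent of vehicle-treated wells. Compounds spanned 30 μM to 1.0 nM in half-log steps over a 7-day exposure of parental HepG2 cells; CC50 derived by 4-parameter curve fit.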

[2] = test system: HBV replication in HepAD38 cells; experiment: Anti-HBV replication assay in HepAD38 cells (QPCR of extracellular HBV DNA); type: cell-based, HBV (genotype D, serotype ayw); details: Hepatitis B virus, 168 h, 7 days incubation, extracellular HBV DNA by QPCR, read-out: Anti-HBV EC50
Outline: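 Read-out is QPCR of HBV DNA released into culture supernatant, converted to percent of vehicle control and fitted to give EC50. Cells were HepAD38 induced by tetracycline removal and dosed […] for 7 days.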

## Cc1cc(NC(=O)c2c(C)c(C(=O)C(=O)N[C@H]3C[C@@H](NS(C)(=O)=O)C3)n(C)c2C)ccc1F [Example 669, N-(4-fluoro-3-methylphenyl)-1,2,4-trimethyl-5-(2-(((1s,3s)-3-(methylsulfonamido)cyclobutyl)amino)-2-oxoacetyl)-1H-pyrrole-3-carboxamide]
[1]
  CC50 at 7 days: > 30000 nM
[2]
  EC50: < 50 nM

## Cc1cc(NC(=O)c2cc(C(=O)C(=O)N[C@@H](C(=O)O)C(C)(C)C)n3c2CCCC3)ccc1F [Example 422, (R)-2-(2-(1-((4-fluoro-3-methylphenyl)carbamoyl)-5,6,7,8-tetrahydroindolizin-3-yl)-2-oxoacetamido)-3,3-dimethylbutanoic acid]
[1]
  CC50 at 7 days: > 30000 nM
[2]
  EC50: > 1000 nM

## Cc1cc(NC(=O)c2c(C)c(C(=O)C(=O)NC3(C)CCOCC3)n(C)c2C)ccc1F [Example 277, N-(4-fluoro-3-methylphenyl)-1,2,4-trimethyl-5-(2-((4-methyltetrahydro-2H-pyran-4-yl)amino)-2-oxoacetyl)-1H-pyrrole-3-carboxamide]
[1]
  CC50 at 7 days: > 30000 nM
[2]
  EC50: < 50 nM

## Cc1c(C(=O)NC2(C)CCCC2)c2n(c1C(=O)C(=O)NC(C)(C)CO)CCCC2 [Example 753, 3-(2-((1-hydroxy-2-methylpropan-2-yl)amino)-2-oxoacetyl)-2-methyl-N-(1-methylcyclopentyl)-5,6,7,8-tetrahydroindolizine-1-carboamide]
[1]
  CC50 at 7 days: > 30000 nM
[2]
  EC50: 50 to 499 nM

## Cc1cc(NC(=O)c2c(C)c(C(=O)C(=O)N[C@H]3[C@@H]4CN(S(C)(=O)=O)C[C@@H]43)n(C)c2C)ccc1F [Example 644, N-(4-fluoro-3-methylphenyl)-1,2,4-trimethyl-5-(2-(((1R,5S,6s)-3-(methylsulfonyl)-3-aabicyclo[3.1.0]hexan-6-yl)amino)-2-oxoacetyl)-1H-pyrrole-3-carboxamide]
[1]
  CC50 at 7 days: 5000 to 30000 nM
[2]
  EC50: < 50 nM

## Cc1c(C(=O)Nc2cccc(C(F)F)c2)c(C)n(C)c1C(=O)C(=O)N[C@]1(C)CC[C@@H](O)CC1 [Example 700, N-(3-(difluoromethyl)phenyl)-5-(2-(((1r,4r)-4-hydroxy-1-methylcyclohexyl)amino)-2-oxoacetyl)-1,2,4-rimethyl-1H-pyrrole-3-carboxamide]
[1]
  CC50 at 7 days: > 30000 nM
[2]
  EC50: < 50 nM

## Cc1cc(NC(=O)c2c(C)c(C(=O)C(=O)NC3(CO)CCC3)n(C)c2C)ccc1F [Example 12, N-(4-fluoro-3-methylphenyl)-5-(2-((1-(hydroxymethyl)cyclobutyl)amino)-2-oxoacetyl)-1,2,4-trimethyl-1H-pyrrole-3-carboxamide]
[1]
  CC50 at 7 days: > 30000 nM
[2]
  EC50: < 50 nM

## Cc1cc(NC(=O)c2c(Cl)c(C(=O)C(=O)NC3(CO)CC3)n3c2CCC3)ccc1F [Example 542, 6-chloro-N-(4-fluoro-3-methylphenyl)-5-(2-((1-(hydroxymethyl)cyclopropyl)amino)-2-oxoacetyl)-2,3-dihydro-1H-pyrrolizine-7-carboxamide]
[1]
  CC50 at 7 days: > 30000 nM
[2]
  EC50: < 50 nM

## Cc1cnc(NC(=O)c2c(C)c(C(=O)C(=O)NC3(CO)CCC3)n3c2CCCC3)s1 [Example 750]
[1]
  CC50 at 7 days: > 30000 nM
[2]
  EC50: 50 to 499 nM

## Cc1cc(NC(=O)c2c(C)c(C(=O)C(=O)NC(C)(C)C)n(C)c2C)ccc1F [Example 2, 5-(2-(tert-butylamino)-2-oxoacetyl)-N-(4-fluoro-3-methylphenyl)-1,2,4-trimethyl-1H-pyrrole-3-carboxamide]
[1]
  CC50 at 7 days: > 30000 nM
[2]
  EC50: < 50 nM

## Cc1cc(NC(=O)c2c(C)c(C(=O)C(=O)Nc3ccc(F)c(F)c3)n(C)c2C)ccc1F [Example 231, 5-(2-((3,4-difluorophenyl)amino)-2-oxoacetyl)-N-(4-fluoro-3-methylphenyl)-1,2,4-trimethyl-1H-pyrrole-3-carboxamide]
[1]
  CC50 at 7 days: 5000 to 30000 nM
[2]
  EC50: < 50 nM

## Cc1c(C(=O)Nc2cc(F)c(F)c(F)c2)c(C)n(C)c1C(=O)C(=O)NC1CCC(F)(F)CC1 [Example 324, 5-(2-((4,4-difluorocyclohexyl)amino)-2-oxoacetyl)-1,2,4-trimethyl-N-(3,4,5-trifluorophenyl)-1H-pyrrole-3-carboxamide]
[1]
  CC50 at 7 days: 5000 to 30000 nM
[2]
  EC50: < 50 nM

## Cc1cc(NC(=O)c2c(Cl)c(C(=O)C(=O)NC(C)(C)C)n(C)c2C)cnc1F [Example 371, 5-(2-(tert-butylamino)-2-oxoacetyl)-4-chloro-N-(6-fluoro-5-methylpyridin-3-yl)-1,2-dimethyl-1H-pyrrole-3-carboxamide]
[1]
  CC50 at 7 days: > 30000 nM
[2]
  EC50: 50 to 499 nM

## Cc1c(C(=O)Nc2ccc(F)c(Cl)c2)c2n(c1C(=O)C(=O)N[C@H]1C[C@H](O)C1)CCCC2 [Example 449, N-(3-chloro-4-fluorophenyl)-3-(2-(((1r,3r)-3-hydroxycyclobutyl)amino)-2-oxoacetyl)-2-methyl-5,6,7,8-tetrahydroindoliziine-1-carboxamide]
[1]
  CC50 at 7 days: > 30000 nM
[2]
  EC50: 50 to 499 nM

## Cc1cc(NC(=O)c2c(C)c(C(=O)C(=O)NCC(C)(C)O)n(C)c2C)ccc1F [Example 66, N-(4-fluoro-3-methylphenyl)-5-(2-((2-hydroxy-2-methylpropyl)amino)-2-oxoacetyl)-1,2,4-trimethyl-1H-pyrrole-3-carboxamide]
[1]
  CC50 at 7 days: > 30000 nM
[2]
  EC50: < 50 nM

## Cc1c(C(=O)Nc2ccc(F)c(Cl)c2)c2n(c1C(=O)C(=O)NC1(CO)CCC1)CCCC2 [Example 452, N-(3-chloro-4-fluorophenyl)-3-(2-((1-(hydroxymethyl)cyclobutyl)amino)-2-oxoacetyl)-2-methyl-5,6,7,8-tetrahydroindolizine-1-carboxamide]
[1]
  CC50 at 7 days: 5000 to 30000 nM
[2]
  EC50: < 50 nM

## Cc1c(C(=O)Nc2cc(F)c(F)c(F)c2)c(Cl)c(C(=O)C(=O)NC(C)(C)CO)n1C [Example 373, 4-chloro-5-(2-((1-hydroxy-2-methylpropan-2-yl)amino)-2-oxoacetyl)-1,2-dimethyl-N-(3,4,5-trifluorophenyl)-1H-pyrrole-3-carboxamide]
[1]
  CC50 at 7 days: 500 to 4990 nM
[2]
  EC50: < 50 nM

## Cc1csc(NC(=O)C(=O)c2c(C)c(C(=O)Nc3ccc(F)c(C)c3)c(C)n2C)n1 [Example 211, N-(4-fluoro-3-methylphenyl)-1,2,4-trimethyl-5-(2-((4-methylthiazol-2-yl)amino)-2-oxoacetyl)-1H-pyrrole-3-carboxamide]
[1]
  CC50 at 7 days: > 30000 nM
[2]
  EC50: < 50 nM

## Cc1c(C(=O)Nc2ccnc(F)c2)c(C)n(C)c1C(=O)C(=O)N[C@H](C)C(F)(F)F [Example 170, (R)—N-(2-fluoropyridin-4-yl)-1,2,4-trimethyl-5-(2-oxo-2-((1,1,1-trifluoropropan-2-yl)amino)acetyl)-1H-pyrrole-3-carboxamide]
[1]
  CC50 at 7 days: > 30000 nM
[2]
  EC50: < 50 nM

## Cc1c(C(=O)Nc2cccc(Cl)c2)c(C)n(C)c1C(=O)C(=O)NC(C)(C)CN1CCOCC1 [Example 601, N-(3-chlorophenyl)-1,2,4-trimethyl-5-(2-((2-methyl-1-morpholinopropan-2-yl)amino)-2-oxoacetyl)-1H-pyrrole-3-carboxamide]
[1]
  CC50 at 7 days: > 30000 nM
[2]
  EC50: < 50 nM

## Cc1cc(NC(=O)c2c(C)c(C(=O)C(=O)NC3(C)CC[C@H](O)[C@H](O)C3)n(C)c2C)ccc1F (stereo partly drawn) [Example 703, 5-(2-(((3R,4S)-3,4-dihydroxy-1-methylcyclohexyl)amino)-2-oxoacetyl)-N-(4-fluoro-3-methylphenyl)-1,2,4-trimethyl-1H-pyrrole-3-carboxamide]
[1]
  CC50 at 7 days: > 30000 nM
[2]
  EC50: < 50 nM

## COC(=O)[C@@H](NC(=O)C(=O)c1c(C)c(C(=O)Nc2ccc(F)c(C)c2)c(C)n1C)[C@H](C)O [Example 45, methyl (2-(4-((4-fluoro-3-methylphenyl)carbamoyl)-1,3,5-trimethyl-1H-pyrrol-2-yl)-2-oxoacetyl)-L-allothreoninate]
[1]
  CC50 at 7 days: > 30000 nM
[2]
  EC50: 500 to 1000 nM

## Cc1noc([C@H](C)NC(=O)C(=O)c2c(Cl)c(C(=O)Nc3ccnc(F)c3)c3n2CCCC3)n1 [Example 509, (S)-2-chloro-N-(2-fluororpyridin-4-yl)-3-(2-((1-(3-methyl-1,2,4-oxadiazol-55-yl)ethyl)amino)-2-oxoacetyl)-5,6,7,8-tetrahydroindoliznie-1-carboxamide]
[1]
  CC50 at 7 days: > 30000 nM
[2]
  EC50: 500 to 1000 nM

## Cc1cc(NC(=O)c2c(C)c(C(=O)C(=O)NC3CCS(=O)(=O)C(C)(C)C3)n(C)c2C)ccc1F (stereo not drawn) [Example 623, 5-(2-((2,2-dimethyl-1,1-dioxidotetrahydro-2H-thiopyran-4-yl)amino)-2-oxoacetyl)-N-(4-fluoro-3-methylphenyl)-1,2,4-trimethyl-1H-pyrrole-3-carboxamide]
[1]
  CC50 at 7 days: > 30000 nM
[2]
  EC50: < 50 nM

## Cc1noc([C@H](C)NC(=O)C(=O)c2c(Cl)c(C(=O)Nc3ccc(F)c(C)c3)c3n2CCCC3)n1 [Example 494, (S)-2-chloro-N-(4-fluoro-3-methylphenyl)-3-(2-((1-(3-methyl-1,2,4-oxadiazol-5-yl)ethyl)amino)-2-oxoacetyl)-5,6,7,8-tetrahydroindolizinee-1-carboxamide]
[1]
  CC50 at 7 days: 5000 to 30000 nM
[2]
  EC50: < 50 nM

## Cc1cc(NC(=O)c2c(C)c(C(=O)C(=O)N[C@H]3C[C@H](O)C34CCOCC4)n(C)c2C)ccc1F [Example 620, N-(4-fluoro-3-methylphenyl)-5-(2-(((1S,3S)-3-hydroxy-7-oxaspiro[3.5]nonan-1-yl)amino)-2-oxoacetyl)-1,2,4-trimethyl-1H-pyrrole-3-carboxamide]
[1]
  CC50 at 7 days: > 30000 nM
[2]
  EC50: < 50 nM

## Cc1c(C(=O)Nc2cccc(Cl)c2)c(C)n(C)c1C(=O)C(=O)NC(C)(C)CO [Example 600, N-(3-chlorophenyl)-5-(2-((1-hydroxy-2-methylpropan-2-yl)amino)-2-oxoacetyl)-1,2,4-trimethyl-1H-pyrrole-3-carboxamide]
[1]
  CC50 at 7 days: > 30000 nM
[2]
  EC50: < 50 nM
